Results from PubChem BioAssay (NCI).
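96-well plates; 48 h exposure; 5 concentrations. Endpoints by linear interpolation between flanking doses. Not reached: highest tested concentration assigned. Here, GI50 denotes the concentration required for 50% inhibition of growth. TGI: total growth inhibition.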

How the values were obtained:
Test in all cases: DTP human tumour cell line panel, 48 h
[1] = tested on: SR leukemia
[2] = tested on: NCI/ADR-RES ovarian
[3] = tested on: COLO 205 colon
[4] = tested on: NCI-H460 lung
[5] = tested on: RXF 393 renal
[6] = tested on: HT29 colon
[7] = tested on: IGROV1 ovarian
[8] = tested on: 786-0 renal
[9] = tested on: OVCAR-5 ovarian
[10] = tested on: A549 NSCLC
[11] = tested on: M14 melanoma
[12] = tested on: MCF7 breast
[13] = tested on: SF-268 CNS
[14] = tested on: UACC-257 melanoma
[15] = tested on: HCT-15 colon
[16] = tested on: SN12C renal
[17] = tested on: SNB-75 CNS
[18] = tested on: HOP-62 NSCLC
[19] = tested on: SK-MEL-2 melanoma
[20] = tested on: OVCAR-4 ovarian
[21] = tested on: HCT-116 colon
[22] = tested on: K-562 leukemia
[23] = tested on: U251 CNS
[24] = tested on: UACC-62 melanoma
[25] = tested on: MOLT-4 leukemia
[26] = tested on: NCI-H226 lung
[27] = tested on: RPMI-8226 leukemia
[28] = tested on: ACHN renal
[29] = tested on: SF-295 CNS
[30] = tested on: MDA-MB-435
[31] = tested on: CAKI-1 renal
[32] = tested on: DU-145 prostate
[33] = tested on: MDA-MB-231 breast
[34] = tested on: KM12 colon
[35] = tested on: OVCAR-3 ovarian
[36] = tested on: CCRF-CEM leukemia
[37] = tested on: EKVX NSCLC
[38] = tested on: T-47D breast
[39] = tested on: HL-60(TB) leukemia
[40] = tested on: OVCAR-8 ovarian
[41] = tested on: SF-539 CNS
[42] = tested on: PC-3 prostate
[43] = tested on: SK-OV-3 ovarian
[44] = tested on: SW-620 colon
[45] = tested on: NCI-H522 lung
[46] = tested on: UO-31 renal
[47] = tested on: A498 renal
[48] = tested on: NCI-H23 lung
[49] = tested on: BT-549 breast
[50] = tested on: HCC-2998 colon
[51] = tested on: LOX IMVI melanoma
[52] = tested on: SK-MEL-28 melanoma
[53] = tested on: TK-10 renal
[54] = tested on: SK-MEL-5 melanoma
[55] = tested on: SNB-19 CNS
[56] = tested on: HOP-92 NSCLC
[57] = tested on: MALME-3M melanoma

CC(C)(C)c1cc(C#N)cc(Br)c1OP(=O)(Oc1c(Br)cc(C#N)cc1C(C)(C)C)c1ccccc1
GI50 [1]: 10.5 µM

N#Cc1nc(COCCOCc2ccc(F)cc2)oc1N
TGI [2]: > 100 µM
TGI [3]: > 100 µM
TGI [4]: > 100 µM
TGI [5]: > 100 µM
TGI [6]: > 100 µM
TGI [7]: > 100 µM
TGI [8]: > 100 µM
TGI [9]: > 100 µM
TGI [10]: > 100 µM
TGI [11]: > 100 µM
TGI [12]: > 100 µM
TGI [13]: > 100 µM
TGI [14]: > 100 µM
TGI [15]: > 100 µM
TGI [16]: > 100 µM
TGI [17]: > 100 µM
TGI [18]: > 100 µM
TGI [19]: > 100 µM
TGI [20]: > 100 µM
TGI [21]: > 100 µM
TGI [22]: > 100 µM
TGI [23]: > 100 µM
TGI [24]: > 100 µM
TGI [25]: > 100 µM
TGI [26]: > 100 µM
TGI [27]: > 100 µM
TGI [28]: > 100 µM
TGI [29]: > 100 µM
TGI [30]: > 100 µM
TGI [31]: > 100 µM
TGI [32]: > 100 µM
TGI [33]: > 100 µM
TGI [1]: > 100 µM
TGI [34]: > 100 µM
TGI [35]: > 100 µM
TGI [36]: > 100 µM
TGI [37]: > 100 µM
TGI [38]: > 100 µM
TGI [39]: > 100 µM
TGI [40]: > 100 µM
TGI [41]: > 100 µM
TGI [42]: > 100 µM
TGI [43]: > 100 µM
TGI [44]: > 100 µM
TGI [45]: > 100 µM
TGI [46]: > 100 µM
TGI [47]: > 100 µM
TGI [48]: > 100 µM
TGI [49]: > 100 µM
TGI [50]: > 100 µM
TGI [51]: > 100 µM
TGI [52]: > 100 µM
TGI [53]: > 100 µM
TGI [54]: > 100 µM

O=C1NC2(CCN(CCCC3(c4ccc(F)cc4)OCCO3)CC2)Oc2ccccc21
TGI [2]: > 100 µM
TGI [3]: > 100 µM
TGI [4]: > 100 µM
TGI [5]: > 100 µM
TGI [6]: > 100 µM
TGI [7]: > 100 µM
TGI [8]: > 100 µM
TGI [9]: > 100 µM
TGI [10]: > 100 µM
TGI [11]: > 100 µM
TGI [12]: > 100 µM
TGI [13]: > 100 µM
TGI [14]: > 100 µM
TGI [15]: > 100 µM
TGI [16]: > 100 µM
TGI [55]: > 100 µM
TGI [17]: > 100 µM
TGI [18]: > 100 µM
TGI [56]: > 100 µM
TGI [20]: > 100 µM
TGI [21]: > 100 µM
TGI [22]: > 100 µM
TGI [23]: > 100 µM
TGI [24]: > 100 µM
TGI [25]: > 100 µM
TGI [26]: > 100 µM
TGI [27]: > 100 µM
TGI [28]: > 100 µM
TGI [29]: > 100 µM
TGI [30]: > 100 µM
TGI [57]: > 100 µM
TGI [32]: > 100 µM
TGI [33]: > 100 µM
TGI [1]: > 100 µM
TGI [34]: > 100 µM
TGI [36]: > 100 µM
TGI [37]: > 100 µM
TGI [38]: > 100 µM
TGI [39]: > 100 µM
TGI [40]: > 100 µM
TGI [41]: > 100 µM
TGI [43]: > 100 µM
TGI [44]: > 100 µM
TGI [46]: > 100 µM
TGI [47]: 80.5 µM
TGI [48]: > 100 µM
TGI [50]: > 100 µM
TGI [51]: > 100 µM
TGI [52]: > 100 µM
TGI [53]: > 100 µM
TGI [54]: > 100 µM
